# The source made the active and inactive calls. For most assays here, no stated cut-off is given here; in the data, actives have a measured EC50 and inactives only a lower limit.
# How the values were obtained:
# [1] = tested on: Streptococcus sp. 'group A'; assay: growth inhibition of control SK(-) GAS strain, dose response, counter-screen for streptokinase expression inhibitor project, luminescence, kanamycin, BacTiterGlo, confirmation (AID 1900); format: functional, organism-based
# Streptokinase A = target: T1, Streptokinase A (Streptococcus pyogenes serotype M1, UniProt P10520); assay: S. pyogenes streptokinase expression inhibitors, potency, dose response, plasminogen activation absorbance, OD405 (AID 1914); format: functional, Streptococcus pyogenes M1 GAS;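 further: secreted streptokinase activity via plasminogen activation per viability signal from cell pellet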
# T1 sequence (P10520 whole entry): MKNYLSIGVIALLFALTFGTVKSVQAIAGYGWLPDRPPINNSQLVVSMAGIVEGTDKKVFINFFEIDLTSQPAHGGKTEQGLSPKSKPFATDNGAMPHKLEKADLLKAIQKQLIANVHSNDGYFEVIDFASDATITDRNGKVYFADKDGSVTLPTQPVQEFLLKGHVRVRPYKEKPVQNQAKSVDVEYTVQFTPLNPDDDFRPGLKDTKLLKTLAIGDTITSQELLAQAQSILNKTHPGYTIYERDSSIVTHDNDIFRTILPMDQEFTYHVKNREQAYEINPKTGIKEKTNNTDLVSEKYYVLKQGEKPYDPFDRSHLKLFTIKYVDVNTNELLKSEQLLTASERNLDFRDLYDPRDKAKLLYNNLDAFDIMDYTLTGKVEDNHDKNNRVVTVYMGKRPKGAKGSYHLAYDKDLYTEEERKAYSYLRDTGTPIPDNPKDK
# Streptococcus = assay: Group A Streptococcus viability loss, dose response, counter-screen for streptokinase expression inhibitor project, luminescence, BacTiterGlo (AID 1915); format: functional, organism-based;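 further: potency for reduction of bacterial viability or growth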
# INS1 = assay: beta cell apoptosis inhibitors, cytokine rescue, dose response, luminescence, retest (AID 449756); format: functional, cell-based; settings: Rattus norvegicus;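 further: cell death triggered by IL-1 beta plus TNF-alpha plus IFN-gamma mixture; protective hits raise ATP signal compared with cytokine alone wells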
# [2] = inhibitors of firefly luciferase expression or activity, dose response, H4 neuroglioma cells, luminescence (AID 1990); format: functional, cell-based
# [3] = Luminescence Cell-Based Dose Response HTS to Identify Inhibitors of 5'UTR Stem-Loop Driven Prion Protein mRNA Translation in H4 Neuroglioblastoma Cells. [Related pubchem assays: 1827 (Project Summary), 1813 (Primary HTS)]; format: functional
# [4] = inhibitors of SNCA 5'UTR-driven reporter translation, confirmation, H4 neuroglioma cells, luminescence (AID 1988); format: functional, cell-based
# Cytochrome P450 3A4 = Cytochrome P450 3A4 (Homo sapiens, UniProt P08684);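 further: CYP3A4 tested as one member of a cytochrome P450 panel screen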
# Sequence of Cytochrome P450 3A4 (P08684 whole entry): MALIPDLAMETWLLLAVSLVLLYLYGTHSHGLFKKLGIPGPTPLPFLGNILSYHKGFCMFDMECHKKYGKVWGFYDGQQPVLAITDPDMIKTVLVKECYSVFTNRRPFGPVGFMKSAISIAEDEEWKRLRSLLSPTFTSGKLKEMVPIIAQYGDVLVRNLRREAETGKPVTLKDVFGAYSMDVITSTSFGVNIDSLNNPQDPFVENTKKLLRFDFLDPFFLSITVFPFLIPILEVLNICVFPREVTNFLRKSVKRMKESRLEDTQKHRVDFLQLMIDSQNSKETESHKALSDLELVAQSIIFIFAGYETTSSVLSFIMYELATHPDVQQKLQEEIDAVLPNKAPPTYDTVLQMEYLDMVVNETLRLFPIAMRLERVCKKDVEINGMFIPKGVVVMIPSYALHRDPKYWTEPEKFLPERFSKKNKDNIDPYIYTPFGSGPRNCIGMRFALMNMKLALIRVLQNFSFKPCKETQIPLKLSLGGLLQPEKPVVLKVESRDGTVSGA
# [5] = target: T2, Rac GTPase-activating protein 1 (Homo sapiens, UniProt Q9H0H5); assay: MgcRacGAP GTPase-activating activity inhibitors, confirmation, biochemical, ADP Hunter fluorescence, primary and confirmatory (AID 624330); format: functional
# T2 sequence (Q9H0H5 whole entry): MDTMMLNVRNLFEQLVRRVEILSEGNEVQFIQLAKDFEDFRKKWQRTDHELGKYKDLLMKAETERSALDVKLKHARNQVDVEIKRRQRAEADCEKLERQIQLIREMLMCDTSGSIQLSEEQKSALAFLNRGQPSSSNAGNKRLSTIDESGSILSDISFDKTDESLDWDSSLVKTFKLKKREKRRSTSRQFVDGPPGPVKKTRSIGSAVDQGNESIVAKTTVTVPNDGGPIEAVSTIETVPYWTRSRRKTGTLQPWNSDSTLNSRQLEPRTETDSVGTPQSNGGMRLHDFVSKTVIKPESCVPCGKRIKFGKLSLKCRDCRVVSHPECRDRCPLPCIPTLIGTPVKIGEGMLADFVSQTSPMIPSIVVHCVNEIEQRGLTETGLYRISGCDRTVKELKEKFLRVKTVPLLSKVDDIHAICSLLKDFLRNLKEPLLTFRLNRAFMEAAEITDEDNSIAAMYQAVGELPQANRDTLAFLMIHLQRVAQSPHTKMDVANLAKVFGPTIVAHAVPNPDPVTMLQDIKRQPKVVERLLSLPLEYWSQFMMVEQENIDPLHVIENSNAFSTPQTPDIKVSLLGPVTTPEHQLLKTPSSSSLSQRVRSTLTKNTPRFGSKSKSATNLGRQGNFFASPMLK
# [6] = target: T3, Heat shock factor protein 1 (Mus musculus, UniProt P38532); assay: inhibition of MG132-induced HSE-luciferase signal, confirmation, cell-based, NIH3T3, luminescence, dose retest (AID 2382); format: functional;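 further: NIH3T3 fibroblasts with HSF1-driven luciferase reporter stressed by proteasome inhibitor MG132; luminescence from HSF1-driven luciferase expression after 8 hours of MG132 stress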
# T3 sequence (P38532 whole entry): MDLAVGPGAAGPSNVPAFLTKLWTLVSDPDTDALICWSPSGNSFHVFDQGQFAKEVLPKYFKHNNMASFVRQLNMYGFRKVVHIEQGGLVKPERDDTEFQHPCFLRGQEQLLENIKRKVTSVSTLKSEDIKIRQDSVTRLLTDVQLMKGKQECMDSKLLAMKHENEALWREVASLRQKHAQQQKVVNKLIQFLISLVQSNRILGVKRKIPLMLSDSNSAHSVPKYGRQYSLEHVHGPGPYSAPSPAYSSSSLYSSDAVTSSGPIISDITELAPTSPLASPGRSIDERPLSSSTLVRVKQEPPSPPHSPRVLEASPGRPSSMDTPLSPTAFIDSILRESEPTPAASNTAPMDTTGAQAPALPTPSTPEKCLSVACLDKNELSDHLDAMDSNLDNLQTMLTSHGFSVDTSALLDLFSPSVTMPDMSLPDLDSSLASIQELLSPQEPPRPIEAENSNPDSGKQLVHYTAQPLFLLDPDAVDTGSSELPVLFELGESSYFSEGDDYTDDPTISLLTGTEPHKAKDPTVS
# [7] = target: T4, RNA-binding protein pos-1 (Caenorhabditis elegans, UniProt G5EF15); assay: inhibitors of POS-1/mex-3 RNA binding, dose response, biochemical, fluorescence polarization (AID 1964);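 further: purified POS-1 fused to maltose binding protein made in E. coli; potency of compounds blocking POS-1 binding to fluorescent RNA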
# T4 sequence (G5EF15 whole entry): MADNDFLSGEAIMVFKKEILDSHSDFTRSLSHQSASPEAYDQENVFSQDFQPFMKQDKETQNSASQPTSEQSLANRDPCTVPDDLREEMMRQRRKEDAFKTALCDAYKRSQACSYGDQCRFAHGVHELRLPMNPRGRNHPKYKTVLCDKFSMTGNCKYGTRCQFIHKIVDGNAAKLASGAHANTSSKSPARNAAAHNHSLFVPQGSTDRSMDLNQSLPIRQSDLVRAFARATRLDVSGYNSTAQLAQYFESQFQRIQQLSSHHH
# [8] = control 3'UTR Renilla luciferase suppression, dose response, counter-screen for Shn3 inhibitor project, cell-based, Clone20-Shn3RL, cherry-picked (AID 624133); format: functional
smiles,measurement,setting,value
O=C(/C=C/c1ccccc1)NC(=S)NNC(=O)c1ccco1,EC50,[1],3.86 µM (active)
same,EC50,Streptokinase A,> 150 µM (not active)
same,EC50,Streptococcus,11.2 µM (active)
C=C(C)C(=O)N1CC2(CC(c3cccc(NC(=O)COc4ccc(Cl)cc4)c3)=NO2)C[C@@H]1C(N)=O (some centres undefined),AC50,INS1,9.67 µM (active)
CC(C)(C)c1ccc(OCC(=O)Nc2ccc(C(=O)Nc3ccccc3C(=O)O)cc2)cc1,EC50,[1],4.27 µM (active)
same,EC50,Streptococcus,22.9 µM (active)
COc1ccc(NC(=O)CN2C(=O)COc3ccc(S(=O)(=O)N4CCCCCC4)cc32)cc1,EC50,[2],> 120 µM (not active)
same,EC50,[3],> 120 µM (not active)
same,EC50,[4],> 120 µM (not active)
CCCOc1ccc(Cc2c(Cl)nc(SC)nc2N(C)C)cc1,EC50,[1],20.8 µM (active)
same,EC50,Streptokinase A,24.5 µM (active)
same,EC50,Streptococcus,> 150 µM (not active)
CCn1c(SCc2cc(O)nc3ccccc23)nnc1C1CC1,EC50,[2],> 120 µM (not active)
same,EC50,[3],> 120 µM (not active)
same,EC50,[4],> 120 µM (not active)
CC(O)CNc1nc2sc3c(c2c(=O)n1Cc1ccco1)CCCCC3 (centres undefined),AC50,INS1,45 µM (active)
Cc1onc(-c2c(Cl)cccc2Cl)c1C(=O)NC1C(=O)N2C1SC(C)(C)C2C(=O)O (centres undefined),EC50,[1],< 0.06 µM (active)
same,EC50,Streptococcus,< 0.06 µM (active)
CCNc1ncc2nc(CCc3ccccc3)c(=O)n(C)c2n1,AC50,Cytochrome P450 3A4,31.6 µM (inconclusive)
CC1(C)S[C@@H]2[C@H](NC(=O)COc3ccccc3)C(=O)N2C1C(=O)OCC1CCCCC1 (some centres undefined),EC50,[1],9.95 µM (active)
same,EC50,Streptokinase A,> 150 µM (not active)
same,EC50,Streptococcus,14 µM (active)
CCc1ccc(OC)c(S(=O)(=O)Nc2ccc(Cc3ccncc3)cc2)c1,AC50,INS1,3.7 µM (active)
O=S(=O)(c1cccs1)N1CCN(CC(O)COc2cc(Cl)ccc2Cl)CC1 (centres undefined),AC50,INS1,5.11 µM (active)
CCN(CC)c1ccc(NC(=O)c2ccc3c(c2)OCO3)cc1,IC50,[5],52.9 µM (active)
CC(=O)OC[C@H]1O[C@@H](O/N=C(\C)CCN2CCCc3nc(C)c(C)cc32)[C@H](OC(C)=O)[C@@H](OC(C)=O)[C@H]1OC(C)=O,AC50,Cytochrome P450 3A4,3.98 µM (inconclusive)
CCOc1ccccc1-c1nnc(SCC(=O)NC2CC3CCC2C3)n1CC (centres undefined),EC50,[2],> 120 µM (not active)
same,EC50,[3],> 120 µM (not active)
same,EC50,[4],16.7 µM (active)
CSc1ccccc1NC(=O)CNCCCN1CCOCC1,IC50,[5],81.9 µM (active)
CCOC(=O)c1cccc(NC(=O)Nc2ccc(OCC)cc2)c1,EC50,[2],11.2 µM (inconclusive)
same,EC50,[3],10.8 µM (active)
same,EC50,[4],9.81 µM (active)
c1cc2c(cc1CN1CCN(C3CCCCCC3)CC1)OCO2,IC50,[5],91.9 µM (active)
CC1(C)CC(NCc2ccc3c(c2)OCO3)CCO1 (centres undefined),EC50,[6],> 195 µM (not active)
same,AC50,Cytochrome P450 3A4,17.8 µM (inconclusive)
Cc1nn(Cc2ccccc2Cl)c2sc(C(=O)Nc3ccccc3N3CCOCC3)cc12,EC50,[1],45.4 µM (active)
same,EC50,Streptokinase A,> 150 µM (not active)
same,EC50,Streptococcus,> 150 µM (not active)
S=C(c1ccc(-c2ccccc2)cc1)N1CCOCC1,EC50,[2],10.9 µM (active)
same,EC50,[3],15.5 µM (active)
same,EC50,[4],9.91 µM (active)
CCCn1c(NC(=O)c2ccccc2Br)nc2ccccc21,EC50,[1],10.2 µM (active)
same,EC50,Streptokinase A,> 150 µM (not active)
same,EC50,Streptococcus,30.5 µM (active)
COc1ccc(C2CC(c3cccs3)=NN2C(=O)c2ccc(Br)o2)cc1 (centres undefined),EC50,[1],6.42 µM (active)
same,EC50,Streptokinase A,> 150 µM (not active)
same,EC50,Streptococcus,27.4 µM (active)
CC(=O)N1CCC2(CCCN(c3ccccc3)C2)CC1,AC50,Cytochrome P450 3A4,20 µM (inconclusive)
Cc1cc(NC(=O)CSc2nc3ccccc3[nH]2)n(-c2ccccc2)n1,EC50,[2],> 120 µM (not active)
same,EC50,[3],> 120 µM (not active)
same,EC50,[4],> 120 µM (not active)
CC1CN(CCOCCOc2ccccc2-c2ccccc2)CC(C)O1 (centres undefined),IC50,[5],87.5 µM (active)
COc1ccc(N2C(=O)NC(=O)/C(=C\c3cn(C)c4ccccc34)C2=O)cc1,EC50,[7],1.05 µM (active)
Cc1ccc(C(=O)NC2CCN(S(=O)(=O)c3ccc(C)cc3)CC2)cc1,EC50,[2],> 120 µM (not active)
same,EC50,[3],4.43 µM (active)
same,EC50,[4],45.4 µM (active)
COc1cc2c(cc1NC(=S)Nc1cccc3ccccc13)oc1ccccc12,IC50,[5],70.2 µM (active)
O=C(c1ccc(Cl)cc1)c1cnc(Nc2ccccc2Cl)s1,EC50,[1],18.9 µM (active)
same,EC50,Streptokinase A,> 150 µM (not active)
same,EC50,Streptococcus,30.5 µM (active)
O=C(CN1CCN(Cc2ccccc2)CC1)Nc1ccc(F)c(F)c1,IC50,[5],73.9 µM (active)
NNc1nc(Nc2ccccc2)nc(Nc2ccccc2)n1,EC50,[1],6.74 µM (active)
same,EC50,Streptokinase A,23.5 µM (active)
same,EC50,Streptococcus,> 150 µM (not active)
COc1ccc(CCNC(=O)C(=O)Nc2ccc3nc4n(c(=O)c3c2)CCCCC4)cc1OC,EC50,[1],11.3 µM (active)
same,EC50,Streptokinase A,> 150 µM (not active)
same,EC50,Streptococcus,> 150 µM (not active)
CCN1CCN(CC(=O)Nc2nc3ccc(OC)cc3s2)CC1,IC50,[5],74.3 µM (active)
O=S(=O)(c1ccc2ccccc2c1)N1CCN(C2CCN(Cc3ccccc3)CC2)CC1,IC50,[5],108 µM (active)
O=C(CSc1nc2cc(Cl)c[nH]c-2n1)N1CCOCC1,AC50,[8],32.3 µM (active)
CCOc1ccc(C(=O)N/N=C(\c2ccccc2)c2ccccn2)cc1,EC50,[1],4.25 µM (active)
same,EC50,Streptokinase A,> 150 µM (not active)
same,EC50,Streptococcus,11.8 µM (active)
same,AC50,INS1,1.19 µM (active)
CCCC/C(=N\CCc1c(C)[nH]c2ccc(OC)cc12)C1=C(O)CC(c2ccccc2)CC1=O (centres undefined),EC50,[2],9.11 µM (active)
same,EC50,[3],> 120 µM (not active)
same,EC50,[4],2.61 µM (active)
CC/C(=N\c1ccc(N)cc1)C1=C(O)C(C(=O)OC)C(C)(C)CC1=O (centres undefined),IC50,[5],6.8 µM (active)
COc1ccc(NC(=O)CNCc2cccs2)c(OC)c1,IC50,[5],284 µM (active)
CN1CCN(/C=N/C2=NN(c3cccc(C(F)(F)F)c3)CC2)CC1,IC50,[5],33.9 µM (active)
COc1ccccc1NC(=O)Nc1nc(-c2cccnc2)nc2ccccc12,AC50,Cytochrome P450 3A4,0.631 µM (inconclusive)
CCN1CCN(C(=O)N[C@@H](C(=O)N[C@@H]2C(=O)N3[C@@H]2SC(C)(C)[C@@H]3C(=O)O)c2ccccc2)C(=O)C1=O [PIPERACILLIN SODIUM],EC50,[1],0.361 µM (active)
same,EC50,Streptococcus,0.746 µM (active)
